This is an account of results in PubChem BioAssay (NCI).

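In this assay, cells in 96-well plates receive the compound at five concentrations for 48 hours. Endpoints are linearly interpolated between the surrounding concentrations. Definition used: TGI = concentration required for complete inhibition of growth.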

Test systems include ACHN renal; DMS 114 small cell lung; DMS 273 small cell lung; HOP-18 NSCLC; IGROV1 ovarian; KM20L2 colon; LXFL 529 NSCLC; M14 melanoma; M19-MEL melanoma; MCF7 breast; NCI-H23 lung; NCI/ADR-RES ovarian; SNB-78 CNS; DLD-1 colon; XF 498 CNS.
What all share (assay): NCI anticancer screen, dose series, 48 h

Regarding `Cc1cc(=O)[nH]c(NN2C(Cl)C(=O)C2c2ccc(Cl)cc2)n1` (configuration not stated), the TGI was > 56.4 µM with ACHN renal; 30 µM with DMS 114 small cell lung; 25.9 µM with DMS 273 small cell lung; 23.2 µM in the assay on HOP-18 NSCLC; 15.1 µM with IGROV1 ovarian; 44.5 µM with KM20L2 colon. Also, the TGI in the assay with LXFL 529 NSCLC amounted to 19.2 µM; with M14 melanoma it was 28.9 µM; in the assay on M19-MEL melanoma, 35.7 µM; in the assay with MCF7 breast it was 42.5 µM; in the assay on NCI-H23 lung it was 39.1 µM; with NCI/ADR-RES ovarian, 54.9 µM. Besides, the TGI with SNB-78 CNS was 39 µM.

`O=[N+]([O-])/C=C1\COCc2cc3c(cc21)OCO3`: the TGI with ACHN renal was 43.3 µM; with IGROV1 ovarian, > 100 µM; in the assay on M14 melanoma it was 26.9 µM; with MCF7 breast, 35.8 µM; in the assay on NCI-H23 lung it was 27.1 µM; with NCI/ADR-RES ovarian, 43.4 µM.

As for `C=Cc1c(C)c(OC)cc2c1Oc1ccc(OC)c(C)c1CC2`, the TGI in the assay on ACHN renal, in the assay with IGROV1 ovarian, in the assay on M14 melanoma, in the assay with MCF7 breast, in the assay on NCI-H23 lung and with NCI/ADR-RES ovarian was > 100 µM in each case.

In the case of `O=C(NCCCCCCCCNC(=O)c1cc(-c2ccccc2)nc2ccccc12)c1cc(-c2ccccc2)nc2ccccc12`, the TGI in the assay with ACHN renal, in the assay with IGROV1 ovarian, with M14 melanoma, in the assay on MCF7 breast, with NCI-H23 lung and in the assay on NCI/ADR-RES ovarian was > 100 µM throughout.

`CC1=C(N2CC2)C(=O)c2nc3n(c2C1=O)CCC3OC(=O)CCl` (configuration not stated): the TGI in the assay with ACHN renal was 0.216 µM; with DLD-1 colon it was 1.58 µM; in the assay with DMS 114 small cell lung it was 0.512 µM; in the assay on DMS 273 small cell lung, 0.128 µM; in the assay with HOP-18 NSCLC, 0.178 µM; with IGROV1 ovarian, 0.928 µM. The TGI in the assay on KM20L2 colon was found to be 0.547 µM; with LXFL 529 NSCLC, 0.227 µM; in the assay on M14 melanoma, 0.0814 µM; with M19-MEL melanoma, 0.266 µM; with MCF7 breast it was 0.0468 µM; in the assay with NCI-H23 lung, 0.0825 µM. The TGI came to 0.0862 µM in the assay on NCI/ADR-RES ovarian, 0.6 µM in the assay with SNB-78 CNS and 0.0954 µM in the assay on XF 498 CNS.

Turning to `CCOC(=O)CSc1nc(-c2ccccc2)c(C#N)c(=O)[nH]1`, the TGI with ACHN renal, in the assay with IGROV1 ovarian, in the assay on M14 melanoma, in the assay on MCF7 breast, with NCI-H23 lung and in the assay on NCI/ADR-RES ovarian was > 100 µM each time.

For the compound `CC(=O)OCC(OC(C)=O)C(OC(C)=O)C(C=NN(C(C)=O)S(=O)(=O)c1ccc(/C=C2\NC(=O)NC2=O)cc1)OC(C)=O` (configuration not stated), the TGI in the assay on ACHN renal, in the assay with IGROV1 ovarian, in the assay on M14 melanoma, in the assay with MCF7 breast, in the assay on NCI-H23 lung and in the assay with NCI/ADR-RES ovarian was > 100 µM in each case.

As to `COc1ccc(NC(=O)CC(=O)N2N=C(C)C(N=Nc3ccc(S(=O)(=O)c4ccc(N=NC5C(=O)N(C(=O)CC(=O)Nc6ccc(OC)cc6)N=C5C)cc4)cc3)C2=O)cc1` (configuration not stated), the TGI with ACHN renal, in the assay on IGROV1 ovarian, in the assay on M14 melanoma, in the assay on MCF7 breast, in the assay on NCI-H23 lung and in the assay with NCI/ADR-RES ovarian was > 100 µM each time.

Turning to `O=c1cc(-c2cccc(Cl)c2)[nH]c2ncccc12`, the TGI in the assay on ACHN renal was > 100 µM; in the assay on IGROV1 ovarian it was > 58.9 µM; in the assay with M14 melanoma, > 100 µM; with MCF7 breast, > 100 µM; in the assay on NCI-H23 lung, > 100 µM; in the assay with NCI/ADR-RES ovarian it was > 100 µM.

On to `CN(C)CCCNC(=O)N/N=C/c1cccc([N+](=O)[O-])c1`, for which the TGI with ACHN renal, in the assay with DLD-1 colon, in the assay on DMS 114 small cell lung, in the assay with DMS 273 small cell lung, in the assay on HOP-18 NSCLC and with IGROV1 ovarian was > 100 µM each time. For the same compound, the TGI with LXFL 529 NSCLC, in the assay on M14 melanoma, in the assay on NCI-H23 lung, in the assay on SNB-78 CNS and with XF 498 CNS was > 100 µM in each case.

In the case of `Cc1ccc(N2C(=O)C3c4[nH]c5ccccc5c4C4CCC(C(C)(C)C)CC4C3C2=O)cc1` (configuration not stated), the TGI is 13.6 µM in the assay with ACHN renal; 25.2 µM in the assay with IGROV1 ovarian; 35.6 µM in the assay on M14 melanoma; > 46 µM with MCF7 breast; 32.4 µM in the assay with NCI-H23 lung; 31.8 µM in the assay with NCI/ADR-RES ovarian.

Take `C=C1CC2OC2(C(=O)O[C@H]2CCC3[C@@H]4CCC5=CC(=O)CC[C@]5(C)C4CC[C@@]32C)C1=O` (some centres not stated): the TGI with ACHN renal was 16.2 µM; in the assay with DLD-1 colon, 16.5 µM; with DMS 114 small cell lung, 10.4 µM; with DMS 273 small cell lung, 9.15 µM; in the assay on HOP-18 NSCLC, 12.7 µM; in the assay with IGROV1 ovarian, 25.6 µM. Also, the TGI with KM20L2 colon came out at 16.2 µM; with LXFL 529 NSCLC, 6.08 µM; in the assay with M14 melanoma, 16.6 µM; in the assay on M19-MEL melanoma it was 31.7 µM; in the assay on NCI-H23 lung, 27.3 µM; in the assay with SNB-78 CNS, 19.5 µM. Besides, the TGI with XF 498 CNS amounted to 9.92 µM.

Regarding `Cc1n[nH]c(=O)c2cc(-c3ccccc3)[nH]c12`, the TGI with ACHN renal, with IGROV1 ovarian, in the assay with M14 melanoma, in the assay on MCF7 breast, in the assay on NCI-H23 lung and in the assay with NCI/ADR-RES ovarian was > 100 µM each time.

Take `CC12NN=NC1C(=O)NC2=O` (configuration not stated): the TGI in the assay with ACHN renal, in the assay with DLD-1 colon, in the assay with DMS 114 small cell lung, in the assay with DMS 273 small cell lung, with IGROV1 ovarian and in the assay on KM20L2 colon was > 100 µM throughout. Also, the TGI with LXFL 529 NSCLC, in the assay with M19-MEL melanoma, in the assay with NCI-H23 lung and in the assay on SNB-78 CNS was > 100 µM throughout.

`N#Cc1c(N)oc(-c2cccc([N+](=O)[O-])c2)c1C#N`: the TGI in the assay on ACHN renal is 34.8 µM; with IGROV1 ovarian, 65.3 µM; in the assay with M14 melanoma, > 100 µM; in the assay on MCF7 breast it was > 100 µM; in the assay with NCI-H23 lung, 44 µM; in the assay with NCI/ADR-RES ovarian, > 100 µM.
